# Measurements: the supplement of paper PMC10307832
# How the values were obtained:
# Assay in all cases: relative viability (nuclei count vs DMSO), 5 days (fraction); higher = more cells survive
# Midostaurin + Alpelisib = compound: CO[C@@H]1[C@H](N(C)C(=O)c2ccccc2)C[C@H]2O[C@]1(C)n1c3ccccc3c3c4c(c5c6ccccc6n2c5c31)C(=O)NC4 [Midostaurin] + Cc1nc(NC(=O)N2CCC[C@H]2C(N)=O)sc1-c1ccnc(C(C)(C)C(F)(F)F)c1 [Alpelisib] (partner 2 µM)
# Method in brief: (§1)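 Dosing by pin tool came one day after lung cancer cell lines were seeded in 1536-well plates, using either one drug or a fixed anchor-drug dose plus five library-drug doses (not always all listed) in √10 steps. After 5 days, nuclei were counted on 4× images. Relative viability is treated-well nuclei count divided by vehicle-well nuclei count, and values are medians of duplicate plates.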
# Midostaurin + Pemetrexed = compound: CO[C@@H]1[C@H](N(C)C(=O)c2ccccc2)C[C@H]2O[C@]1(C)n1c3ccccc3c3c4c(c5c6ccccc6n2c5c31)C(=O)NC4 [Midostaurin] + Nc1nc2[nH]cc(CCc3ccc(C(=O)N[C@@H](CCC(=O)O)C(=O)O)cc3)c2c(=O)[nH]1 [Pemetrexed] (partner 0.2 µM)
# Method in brief: as §1
# [1] = compound: COc1cc(-c2nn([C@H]3CC[C@H](N4CCN(C(C)=O)CC4)CC3)c3ncnc(N)c23)ccc1NC(=O)c1cc2ccccc2n1C + CC(=O)Nc1cccc(-n2c(=O)n(C3CC3)c(=O)c3c(Nc4ccc(I)cc4F)n(C)c(=O)c(C)c32)c1 [Trametinib] (partner 0.02 µM)
# Method in brief: as §1
# [2] = compound: COc1cc(-c2nn([C@H]3CC[C@H](N4CCN(C(C)=O)CC4)CC3)c3ncnc(N)c23)ccc1NC(=O)c1cc2ccccc2n1C + CS(=O)(=O)CCNCc1ccc(-c2ccc3ncnc(Nc4ccc(OCc5cccc(F)c5)c(Cl)c4)c3c2)o1 [Lapatinib] (partner 2 µM)
# Method in brief: as §1
# [3] = compound: COc1cc(-c2nn([C@H]3CC[C@H](N4CCN(C(C)=O)CC4)CC3)c3ncnc(N)c23)ccc1NC(=O)c1cc2ccccc2n1C + Nc1ncn([C@H]2C[C@H](O)[C@@H](CO)O2)c(=O)n1 [Decitabine] (partner 2 µM)
# Method in brief: as §1
cell line,measurement,setting,value
UMC-11,relative viability,Midostaurin + Alpelisib; first compound 0.01 µM,1.04
same,relative viability,Midostaurin + Alpelisib; first compound 0.03162 µM,0.915
same,relative viability,Midostaurin + Alpelisib; first compound 0.1 µM,0.792
same,relative viability,Midostaurin + Alpelisib; first compound 0.3162 µM,0.375
same,relative viability,Midostaurin + Pemetrexed; first compound 0.01 µM,0.808
same,relative viability,Midostaurin + Pemetrexed; first compound 0.03162 µM,0.753
same,relative viability,Midostaurin + Pemetrexed; first compound 0.1 µM,0.65
same,relative viability,Midostaurin + Pemetrexed; first compound 0.3162 µM,0.528
same,relative viability,[1]; first compound 0.0128 µM,0.654
same,relative viability,[1]; first compound 0.04048 µM,0.689
same,relative viability,[1]; first compound 0.128 µM,0.67
same,relative viability,[1]; first compound 1.28 µM,0.661
same,relative viability,[2]; first compound 0.0128 µM,1.04
same,relative viability,[2]; first compound 0.04048 µM,0.978
same,relative viability,[2]; first compound 0.128 µM,0.712
same,relative viability,[2]; first compound 1.28 µM,0.739
same,relative viability,[3]; first compound 0.0128 µM,0.706
same,relative viability,[3]; first compound 0.04048 µM,0.606
same,relative viability,[3]; first compound 0.128 µM,0.745
same,relative viability,[3]; first compound 1.28 µM,0.543
